Experimental findings from article PMC11357256, “Selectivity Screening and Structure–Cytotoxic Activity Observations of Selected Oleanolic Acid (OA)-Type Saponins from the Amaranthaceae Family on a Wiade Panel of Human Cancer Cell Lines” (Molecules, 2024) are described below.

Bounds are passed on as bounds.

One assay concerns PNT2. Description: MTT cell viability assay, PNT2 normal prostate epithelial cells. The conditions noted are these: Homo sapiens. It counts as cell-based. From the text: (§1) Cell lines used in the study were grouped as follows: skin panel (melanomas: HTB140, derived from metastatic site: lymph node, ATCC Hs 294 T; malignant A375, ATCC CRL-1619; stage I primary WM793, RRID:CVCL 8787; skin keratinocytes HaCaT); prostate panel (prostate carcinomas: Du145, derived from metastatic site: brain, ATCC HTB-81; grade IV PC3, derived from metastatic site: bone, ATCC CRL-1435, LNCaP, derived from the metastatic site: lymph node, ATCC CRL-1740; prostate epithelial, PNT2, ECACC 95012613); gastrointestinal panel (colorectal adenocarcinomas: Caco2, ATCC HTB-37, HT29, ATCC HTB-38, DLD-1, ATCC CCL-221, HCT116, ATCC CCL-247, and colon epithelial cells CCD 841 CoN, ATCC CRL-1790; hepatocellular carcinoma HepG2, ATCC HB-8065); thyroid panel (follicular thyroid carcinoma FTC133, ECACC 9406090, undifferentiated thyroid carcinoma 8505C, ECACC 94090184, papillary thyroid carcinoma TPC-1, SCC147, normal thyroid follicular epithelial Nthy-ori 3–1, ECACC 90011609); and breast panel (ER-positive breast adenocarcinoma MCF7, ATCC HTB-22; ER-negative breast adenocarcinoma MDA-MB-231, ATCC HTB-26; breast epithelial MCF10A, ATCC CRL-10317). Cells were grown under standard conditions (37 °C, 5% CO2, relative humidity), and culture media (DMEM/F12 for PNT2, WM 793, HT29, PC3, FTC133, 8505 C, MDA-MB-231, TPC-1; DMEM Low Glucose for DU145; DMEM High Glucose for HTB140, A375, HaCaT; MEM with NEAA for Caco2 and MCF7; RPMI1640 with sodium pyruvate for LNCaP; DMEM/F12 with 20 ng/mL epidermal growth factor (EGF), 10 μg/mL insulin, 0.5 μg/mL hydrocortisone, 100 ng/mL cholera toxin) for MCF10A) supplemented with 10% fetal bovine serum (FBS) or 5% donor horse serum for MCF10A, and 1% antibiotics solution (10,000 U penicillin and 10 mg streptomycin/mL) […], as previously described. All cell lines, culture media, and supplements were from Sigma-Aldrich (Germany).
(§2) The cells were seeded in 96-well plates (1.5 × 10^4 cells/well). After 24 h, fresh medium was added, containing the tested compounds (0.5–100 μg/mL) and incubated for 24 or 48 h. Cell viability was determined by MTT assay, according to the manufacturer’s instructions, as described previously. Each experiment was performed in triplicate. The absorbance was measured at 570 nm using a Biotek Synergy microplate reader (BioTek Instruments Inc., Winooski, VT, USA). Cell viability was expressed as a percent of control (untreated cells). Doxorubicin was used as a reference drug.
On the technique in general: Tetrazolium assays rely on reduction of a dye to a coloured formazan, in cell work by metabolically active cells.

The next assay deals with MCF10A. Description: MTT cell viability assay, MCF10A normal breast epithelial cells. Type of assay: cell-based. The conditions noted are these: Homo sapiens, MCF-10A.
Excerpt: as §1, §2

The next assay has as its system 8505C. Description: MTT cell viability assay, 8505C undifferentiated thyroid carcinoma cells. The conditions noted are these: for IC50: Homo sapiens, 8505C; for Selectivity Index (SI): IC50 Nthy-ori 3-1 / IC50 8505C. Type of assay: cell-based, human.
Excerpt: as §1, §2
The selectivity index (SI) was calculated from the following formula:SI = IC50 of compound in a normal cell line/IC50 of compound in cancer cell line.IC50, half maximal inhibitory concentration, is a concentration required to kill 50% of the cells.

One may read the IC50 as the point on the concentration scale where inhibition reaches its midpoint. Consider `CC1(C)CCC2(C(=O)O)CCC3(C)C(=CCC4C5(C)CCC(OC6OC(C(=O)O)C(O)C(O)C6O)C(C)(C)C5CCC43C)C2C1` [CE, oleanolic acid-3-O-β-D-glucuronopyranoside], for which the half-maximal inhibitory concentration (IC50) with PNT2 (24 h) was greater than 100 µg/mL; in the assay on PNT2 (48 h), greater than 100 µg/mL; with MCF10A (24 h), greater than 100 µg/mL; in the assay on MCF10A (48 h) it was greater than 100 µg/mL; in the assay with 8505C (24 h), 2.8 µg/mL; with 8505C (48 h), 1.8 µg/mL. In addition, the “Selectivity Index (SI)” value worked out at 26.9 with 8505C (24 h) and 16.5 in the assay with 8505C (48 h).
